Holding throughout (type): cell-based
The test system of data set [1] is SNU16 cells. In words: 5-Fluorouracil sensitivity, MTS proliferation assay. The settings on record: SNU16 cells before and after CD44-SLC1A2 siRNA1 silencing, vs scrambled siRNA. The method, then:
(§1) Gastric cancer cells and primary tissues were lysed with glutamate assay buffer and glutamate concentrations were determined using a Glutamate Assay Kit (BioVision, USA). Briefly, to each cellular lysate, a vendor-provided glutamate Enzyme Mix was added which recognizes glutamate as a specific substrate leading to proportional color development. For cisplatin treatments, cells were seeded into 96 well plates after siRNA transfection. Subsequently, cisplatin or 5-FU at increasing dosages were added (0-1 mM) to respective wells. Cells were subjected to MTS proliferation assays after 48 hours of drug treatment. Each assay was performed in triplicate, and the results were averaged over three independent experiments.
On the technique in general: Formazan colour is commonly taken as a measure of viable cells.

The subject of data set [2] is SNU16 cells. In words: Cisplatin sensitivity, MTS proliferation assay. Conditions: 48 hours of drug treatment, read-out: GI50 (concentration required to cause 50% growth inhibition). The method, then: as §1
The subject of a further data set is AGS cells. In words: Cell proliferation assay, AGS fusion negative cells. The method, then: Gastric cancer cells were transfected with either specific siRNAs targeted to the CD44-SLC1A2 fusion site (100 nM, custom siRNA siGENOME with SMART selection, Dharmacon) or negative control scrambled siRNAs using siPORT™ NeoFX™ transfection reagent (Applied Biosystem) in Optimem Medium (Invitrogen) following the manufacturer's protocol. After 24, 48, and 72 hours siRNA treatment, cells were subjected for downstream analysis. For overexpression studies, the full length coding regions of CD44-SLC1A2 cDNA were inserted into the pEGFP-N1 vector. Control vectors or fusion-GFP vectors were introduced into HFE145 cells, and stable transfectants were selected using puromycin for 4 weeks. Cell proliferation assays were performed using a CellTiter-96 Aqueous Nonradioactive Cell Proliferation Assay kit (Promega) following the manufacturer's instructions and the plates were measured by PerkinElmer plate reader. Cell invasion assays were performed using Biocoat™ Matrigel™ invasion chambers with 8 μm pore filter inserts (BD Bioscience). 48 hours after transfection, 5×10^4 cells were transferred to the upper matrigel chamber in 500 μl of serum-free medium and incubated for 24 hours. Invading cells were counted using light microscopy. Each assay was performed in triplicate, and the results were averaged over three independent experiments. […]

The next data set concerns CD44-SLC1A2 fusion gene. In words: RT-PCR of CD44-SLC1A2 expression after fusion-specific siRNA treatment. Conditions: SNU16 cells, siRNA 100 nM, vs scrambled siRNA. The protocol: (§2) Gastric cancer RNAs were reverse transcribed by SuperScript II reverse transcriptase enzyme using oligo-dT (T18) primers (Invitrogen). To detect CD44-SLC1A2, RT-PCR was performed using forward primers to CD44 exon 1 (5′-[…]-3′ (SEQ ID NO: 3)) and reverse primers to either SLC1A2 exon 3 (5′-[…]-3′ (SEQ ID NO: 4)); exon4 (5′-[…]-3′) (SEQ ID NO: 5); exons (5′-[…]-3′ (SEQ ID NO: 6)) or exon 6 (5′[…]-3′ (SEQ ID NO: 7)). Products were resolved by gel electrophoresis and bands of interest excised and cloned for subsequent analysis. To evaluate wild-type CD44 and SLC1A2 expression independently of CD44-SLC1A2, we used CD44 primers targeting exons 3, 4, 5; and SLC1A2 primers targeting exon 1. CD44-SLC1A2 RT-PCR involving clinical specimens (FIG. 1) was performed in an unselected cohort of gastric cancer patients. Reactions were repeated a minimum of three independent times.
(§3) Gastric cancer cells were transfected with either specific siRNAs targeted to the CD44-SLC1A2 fusion site (100 nM, custom siRNA siGENOME with SMART selection, Dharmacon) or negative control scrambled siRNAs using siPORT™ NeoFX™ transfection reagent (Applied Biosystem) in Optimem Medium (Invitrogen) following the manufacturer's protocol. After 24, 48, and 72 hours siRNA treatment, cells were subjected for downstream analysis. […]

The test system of data set [3] is SLC1A2 protein. Briefly: Immunofluorescence staining with SLC1A2 antibodies. Conditions: SNU16 cells, control vs fusion silenced. The protocol: (§4) Gastric cancer cells were transfected with either specific siRNAs targeted to the CD44-SLC1A2 fusion site (100 nM, custom siRNA siGENOME with SMART selection, Dharmacon) or negative control scrambled siRNAs using siPORT™ NeoFX™ transfection reagent (Applied Biosystem) in Optimem Medium (Invitrogen) following the manufacturer's protocol. After 24, 48, and 72 hours siRNA treatment, cells were subjected for downstream analysis. For overexpression studies, the full length coding regions of CD44-SLC1A2 cDNA were inserted into the pEGFP-N1 vector. Control vectors or fusion-GFP vectors were introduced into HFE145 cells, and stable transfectants were selected using puromycin for 4 weeks.
Cells were fixed with 3.7% formaldehyde followed by permeabilisation using 0.1% Triton X-100. After 3× washes with 1×PBS, cells were blocked with 1% BSA. Subsequently, cells were incubated with primary SLC1A2 antibodies (Cell Signaling Technology) for 2 hours followed by 2 hours secondary antibody (Sigma) incubation. Images were taken using a Nikon Eclipse TE2000-U microscope.

Data set [4] relates to SNU16 cells. Briefly: Cell proliferation assay, SNU16. Conditions: vs scrambled/control siRNA. The method, then:
as §4
(§5) Cell proliferation assays were performed using a CellTiter-96 Aqueous Nonradioactive Cell Proliferation Assay kit (Promega) following the manufacturer's instructions and the plates were measured by PerkinElmer plate reader. Cell invasion assays were performed using Biocoat™ Matrigel™ invasion chambers with 8 μm pore filter inserts (BD Bioscience). 48 hours after transfection, 5×10^4 cells were transferred to the upper matrigel chamber in 500 μl of serum-free medium and incubated for 24 hours. Invading cells were counted using light microscopy. Each assay was performed in triplicate, and the results were averaged over three independent experiments.

Data set [5] relates to SLC1A2 protein. Briefly: Western blotting with anti-SLC1A2 antibodies, SNU16 membrane fraction. The settings on record: after fusion-specific siRNA. The protocol: Cells were harvested in lysis buffer (10 mM Tris.Cl pH 7.5, 150 mM NaCl, 1% Triton X-114) for 1 hour at […], and centrifuged at 800 g. Supernatants were incubated at 30° C. for 5-10 min and further centrifuged at RT, 300 g. Western blotting was performed on membrane fractions using the following antibodies and dilutions: 1:500 SLC1A2/EAAT2 (Cell Signaling Technologies), 1:2000 α-tubulin (Cell Signaling Technologies). Experiments were repeated a minimum of three independent times.
as §4

Data set [6] deals with SNU16 cells. In words: Colony formation assay, SNU16. Conditions: vs scrambled siRNA. The method, then:
as §4
Base layers of 0.5% Gum Agar in 1× McCoy's 5 A and 10% FBS were poured into 6-well plates and allowed to harden at 4° C. After 48 hours siRNA transfection, 50,000 cells/well were seeded in complete media plus agar mixture at 42° C. and seeded on top of the solidified base layer. Plates were incubated at 37° C. in for 3-4 weeks, during which plates were fed drop-wise with complete media. After 3-4 weeks, plates were photographed using the Kodak GL 200 System (EpiWhite illumination). Each assay was performed in triplicate, and the results were averaged over three independent experiments.

Data set [7] deals with SNU16 cells. Briefly: Matrigel cell invasion assay, SNU16. The settings on record: vs control. The protocol:
as §4, §5

The test system of data set [8] is wild-type CD44 and SLC1A2. In words: RT-PCR of wild-type CD44 and SLC1A2 expression after fusion-specific siRNA treatment. The settings on record: SNU16 cells. The protocol: as §2, §3

Where two headings read alike, the source gives them in different places.

On to `O=c1[nH]cc(F)c(=O)[nH]1` [5-fluorouracil], for which the “5-Fluorouracil sensitivity, control vs CD44-SLC1A2 silenced cells” value in the data set with SNU16 cells [1] is “no differences between control and silenced cells were observed”; in the data set with SNU16 cells [1] (listed as 5-Fluorouracil) it was “no significant change in sensitivity to 5-Fluorouracil”.

For `N.N.[Cl][Pt][Cl]` [cisplatin], the values for the GI50 in the data set with SNU16 cells [2] (SNU16 cells after CD44-SLC1A2 siRNA treatment) and in the data set with SNU16 cells [2] (control SNU16 cells) were 3.96 µM and 11.8 µM, respectively.

As to “siRNA1: siRNA targeting the CD44-SLC1A2 fusion site, 5′-CGCAGAUCGUGCCAACAAUUU-3′ (SEQ ID NO: 27) (chemistry not given here)”, the “proliferation of AGS cells after fusion-specific siRNA” value with AGS cells is “proliferation of AGS cells is not affected”.

Take “siRNA2: second siRNA targeting the CD44-SLC1A2 fusion site, 5′-GCACAUCGUGCCAACAAUAUU-3′ (SEQ ID NO: 28) (chemistry not given here)”: in the data set on CD44-SLC1A2 fusion gene, the CD44-SLC1A2 expression entry is given as “Reduction of CD44-SLC1A2 expression”. Further, in the data set with SLC1A2 protein [3], the “membranous expression of SLC1A2 (immunofluorescence)” value is listed as “significantly reduced”. In addition, the “proliferation of AGS cells after fusion-specific siRNA” value in the data set with AGS cells is reported as “proliferation of AGS cells is not affected”. For the same compound, the proliferation rate result in the data set on SNU16 cells [4] is recorded as “significant decrease in proliferation rate”. For the same compound, the “SLC1A2 protein expression (Western blotting)” value with SLC1A2 protein [5] was “knockdown of SLC1A2 protein expression”. The “colony formation (anchorage-independent growth)” value in the data set on SNU16 cells [6] is recorded as “reduction in numbers of colonies formed”. Besides, the cell invasion rate result in the data set with SNU16 cells [7] is on record as “significant reduction of invasion rate”. The “independent (regular) CD44 and SLC1A2 expression” value in data set [8] is “without impairing regular CD44 and SLC1A2 expression”.

The record behind these values is patent US20120258998A1, “Fusion genes in gastrointestinal cancer” (priority 2011, published 2012).
